In this assay the test system is B6C3F1 mice, ip Sarcoma M5076, median survival T/C. The experiment in a line: NCI In Vivo Anticancer Drug Screen. Data for tumor model Sarcoma M5076 (intraperitoneal) in B6C3F1 mice. To be noted: endpoint: median survival time, schedule: Q04DX004 (ip), higher = longer survival. The gist of the method: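 Transplantable tumour in mice; compound-treated vs vehicle-treated groups. Read-out: survival. Value = treated/control ratio.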

[1] abbreviates: dose: 25.0 mg/kg/injection, vehicle: Klucel (hydroxypropylcellulose) (HPC).
The mark [2] stands for this setting: dose: 50.0 mg/kg/injection, vehicle: Klucel (hydroxypropylcellulose) (HPC).
The mark [3] stands for this setting: dose: 100.0 mg/kg/injection, vehicle: Klucel (hydroxypropylcellulose) (HPC).
Setting [4] is: dose: 200.0 mg/kg/injection, vehicle: Klucel (hydroxypropylcellulose) (HPC).
Where [5] appears, read: dose: 400.0 mg/kg/injection, vehicle: Klucel (hydroxypropylcellulose) (HPC).

For 14 molecules, T/C results are on record in PubChem BioAssay AID292 (DTP/NCI, 2004).

“And” between values parts separate entries of the source, which are not always exact repeats. Equal entries are not always repeated. Inconclusive results and toxic doses are left out.

Consider `CC(=O)NC(CSC1=C2NC(=O)\C=C/C=C/C=C\C(C)C(O)CC(=O)/C(C)=C\CC(O)/C=C/C(C)C(O)C(C)C=C(C)C(=O)c3c(O)c(C)cc(c3C1=O)C2=O)C(=O)O` (stereo not given), for which the T/C (dose: 1.25 mg/kg/injection, vehicle: Klucel (hydroxypropylcellulose) (HPC)) is 100 % of control; the T/C (dose: 2.5 mg/kg/injection, vehicle: Klucel (hydroxypropylcellulose) (HPC)) was 100 % of control; the T/C (dose: 5.0 mg/kg/injection, vehicle: Klucel (hydroxypropylcellulose) (HPC)) was 101 % of control; the T/C (dose: 10.0 mg/kg/injection, vehicle: Klucel (hydroxypropylcellulose) (HPC)) is 93 % of control; the T/C (dose: 20.0 mg/kg/injection, vehicle: Klucel (hydroxypropylcellulose) (HPC)) is 100 % of control.

Consider `COc1ccc(C=C(C(=O)CCN(C)C)C(=O)CCN(C)C)cc1`, for which the T/C is 99 % of control (dose: 25.0 mg/kg/injection, vehicle: saline); 101 % of control (dose: 50.0 mg/kg/injection, vehicle: saline); 102 % of control (dose: 100.0 mg/kg/injection, vehicle: saline); 102 % of control (dose: 200.0 mg/kg/injection, vehicle: saline).

Turning to `COc1ccc2nc(C)cc(N/N=C/c3cccnc3)c2c1`, the T/C runs as follows: (dose: 12.5 mg/kg/injection, vehicle: Klucel (hydroxypropylcellulose) (HPC)) 104 % of control; under setting [1], 114 % of control; under setting [2], 116 % of control; under setting [3], 117 % of control.

For the molecule `[Cl][Pt][Cl].[NH-]C(CO)C(=O)O` (stereo not given), the T/C is 97 % of control (dose: 12.5 mg/kg/injection, vehicle: water); 111 % of control (dose: 25.0 mg/kg/injection, vehicle: water); 111 % of control (dose: 50.0 mg/kg/injection, vehicle: water).

Turning to `CN=C(NC)c1ccc(NC(=O)/C=C\c2ccc(/C=C/C(=O)Nc3ccc(C(=NC)NC)cc3)cc2)cc1`, the T/C runs as follows: (dose: 3.12 mg/kg/injection, vehicle: Klucel (hydroxypropylcellulose) (HPC)) 124 % of control; (dose: 3.75 mg/kg/injection, vehicle: Klucel (hydroxypropylcellulose) (HPC)) 116 % of control; (dose: 6.25 mg/kg/injection, vehicle: Klucel (hydroxypropylcellulose) (HPC)) 115 % of control; (dose: 10.42 mg/kg/injection, vehicle: Klucel (hydroxypropylcellulose) (HPC)) 164 % of control; (dose: 17.37 mg/kg/injection, vehicle: Klucel (hydroxypropylcellulose) (HPC)) 105 % of control.

Take `OCCOCCN1CCN(CCCN2c3ccccc3Sc3ccc(C(F)(F)F)cc32)CC1`: the T/C is 105 % of control (dose: 0.75 mg/kg/injection, vehicle: saline); 110 % of control (dose: 1.5 mg/kg/injection, vehicle: saline); 91 % of control (dose: 3.0 mg/kg/injection, vehicle: saline); 105 % of control (dose: 6.0 mg/kg/injection, vehicle: saline); 96 % of control and 100 % of control and 103 % of control (dose: 7.5 mg/kg/injection, vehicle: saline); 104 % of control (dose: 12.0 mg/kg/injection, vehicle: saline). For the same molecule, the T/C reads like this: (dose: 15.0 mg/kg/injection, vehicle: saline) 102 % of control and 107 % of control and 119 % of control; (dose: 30.0 mg/kg/injection, vehicle: saline) 101 % of control and 107 % of control and 122 % of control; (dose: 60.0 mg/kg/injection, vehicle: saline) 96 % of control (2×) and 101 % of control.

Regarding `COc1cc(N2C(=O)C(=O)C(C(C)=O)C2=O)c(OC)cc1Cl` (stereo not given), the T/C runs as follows: under setting [2], 102 % of control; under setting [3], 102 % of control; under setting [4], 101 % of control; under setting [5], 102 % of control.

For `N=C1C=CC2C(=Nc3ccccc3[N+]2=O)N1Cc1ccncc1` (stereo not given), the T/C was 95 % of control (dose: 18.75 mg/kg/injection, vehicle: saline with Tween-80); 93 % of control (dose: 37.5 mg/kg/injection, vehicle: saline with Tween-80); 91 % of control (dose: 75.0 mg/kg/injection, vehicle: saline with Tween-80); 87 % of control (dose: 150.0 mg/kg/injection, vehicle: saline with Tween-80); 87 % of control (dose: 300.0 mg/kg/injection, vehicle: saline with Tween-80).

With `Cc1nc2ccccc2c2nnc(SCC(=O)N(Cc3ccccc3)c3ccccc3)n12`, the T/C is, setting by setting: under setting [1], 98 % of control; under setting [2], 115 % of control; under setting [3], 114 % of control; under setting [4], 104 % of control; under setting [5], 112 % of control.

On to `C=CCCC(=O)CCCC(=O)O[C@@H]1[C@@H]2[C@H](CC1(C)C)[C@H](O)[C@@]13O[C@@H]1[C@H](O)[C@@]1(CO1)[C@@]23C`, for which the T/C (dose: 50.0 micrograms/kg/injection, vehicle: Klucel (hydroxypropylcellulose) (HPC)) was 92 % of control; the T/C (dose: 100.0 micrograms/kg/injection, vehicle: Klucel (hydroxypropylcellulose) (HPC)) is 96 % of control; the T/C (dose: 200.0 micrograms/kg/injection, vehicle: Klucel (hydroxypropylcellulose) (HPC)) is 96 % of control; the T/C (dose: 400.0 micrograms/kg/injection, vehicle: Klucel (hydroxypropylcellulose) (HPC)) was 96 % of control; the T/C (dose: 800.0 micrograms/kg/injection, vehicle: Klucel (hydroxypropylcellulose) (HPC)) was 93 % of control.

For `COc1ccc(-n2[nH]c3c(cnc4ccccc43)c2=O)cc1`, the T/C reads like this: (dose: 2.25 mg/kg/injection, vehicle: saline with Tween-80) 93 % of control; (dose: 4.5 mg/kg/injection, vehicle: saline with Tween-80) 95 % of control; (dose: 9.0 mg/kg/injection, vehicle: saline with Tween-80) 94 % of control; (dose: 18.0 mg/kg/injection, vehicle: saline with Tween-80) 89 % of control; (dose: 36.0 mg/kg/injection, vehicle: saline with Tween-80) 92 % of control.

With `N[C@@H](Cc1ccc(N(CCCl)CCCl)cc1)C(=O)O`, the T/C runs as follows: (dose: 0.5 mg/kg/injection, vehicle: saline with Tween-80) 124 % of control; (dose: 2.0 mg/kg/injection, vehicle: saline with Tween-80) 188 % of control; (dose: 2.0 mg/kg/injection, vehicle: saline) 151 % of control; (dose: 4.0 mg/kg/injection, vehicle: saline with Tween-80) 213 % of control and 221 % of control; (dose: 4.0 mg/kg/injection, vehicle: saline) 172 % of control; (dose: 8.0 mg/kg/injection, vehicle: saline with Tween-80) 251 % of control. For the same molecule, the T/C (dose: 8.0 mg/kg/injection, vehicle: saline) is 251 % of control.

Regarding `O=C(NC(Cc1ccc(I)cc1)C(=O)O)c1ccc(Br)cc1` (stereo not given), the T/C runs as follows: (dose: 25.0 mg/kg/injection, vehicle: sodium bicarbonate) 102 % of control; (dose: 50.0 mg/kg/injection, vehicle: sodium bicarbonate) 105 % of control; (dose: 100.0 mg/kg/injection, vehicle: sodium bicarbonate) 97 % of control; (dose: 200.0 mg/kg/injection, vehicle: sodium bicarbonate) 104 % of control; (dose: 400.0 mg/kg/injection, vehicle: sodium bicarbonate) 90 % of control.

Turning to `COc1ccccc1C1C(C#N)C(=O)NC(=O)C1C#N` (stereo not given), the T/C under setting [2] is 100 % of control, the T/C under setting [3] was 100 % of control, the T/C under setting [4] is 95 % of control and the T/C under setting [5] was 102 % of control.
